Several values for one entry are separate records, joined by “and”; a condition that tells them apart may be missing. Identical values can stand only once. Marks after values point to notes of the source that are not given here.
Assays:
[1] = UV-vis spectral properties / extinction coefficients in aqueous buffer; type: physicochemical; settings: for ε at λmax / λmax: merocyanine dyes
Protocol: Absorption spectra were recorded on a Cary 50 UV-vis spectrometer from Varian. All measurements were performed in 1 cm UV-vis disposable cuvettes (BRAND semi-micro) and air-equilibrated solutions at 25±0.1° C. A total assay volume of 1.0 mL was used for each measurement. UV-vis scan spectra were recorded using following parameters: average time 0.05 s; data interval 1 nm; scan rate 1200 nm/min; with base line correction.
(§1) Stock solutions of assayed compounds (2-5 mM) were prepared in H2O-DMSO (1:1), stored at −20° C., and diluted to 1.0 mM with buffer before use. The L-Cys stock solution (20.0 mM) was freshly prepared in buffer before the measurements. […]
For a measurement, 1000 μL of buffer and 1-50 μL of probe (1.0 mM) were mixed, and then transferred to a cuvette. Absorbance spectra (250-800 nm) were measured against a blank of the buffer. At least six concentrations of each compound were used to calculate extinction coefficients from the slope of probe concentration vs absorbance plots, using MS Excel software (Microsoft).

[2] = Cys-response screening by UV-vis (cleavage of acryloyl ester by excess Cys); settings: for ε^Cys / λ^Cys: after excess Cys (100 μM), 37° C., 15 min; for SNR: from ε^Cys and ε^blank
Protocol: as §1
In the same manner, ε^Cys was determined from the solutions of probe reacted with an excess of Cys (100 μM). The reactions were performed at 37° C. (incubation time 15 min). Blank reactions were run without addition of Cys.
Spectra recorded in the presence of Cys confirmed a colorimetric response through the cleavage of acryloyl ester. […] Moreover, their spectral profiles were advantageously fulfilling the wavelength requirement for the Cys sensing application in Cedex system (340, 378, 409, 480, 512, 520, 552, 583, 629, 652, 659 and 800 nm).

[3] = Evaluation of stability (hydrolysis of probe in buffer, UV-vis); type: physicochemical; settings: 25 mM HEPES pH 7.4, 15.6 μM, 5 h, ε from merocyanine analogues (LZ07: ε from Table 2)
Protocol: For a measurement, 1000 μL of buffer and 16 μL of probe (1.0 mM) were mixed, and then incubated at +4° C. and at +37° C. for 5 h. The resulting mixtures were transferred to a cuvette, and the absorbance (250-800 nm) was measured. Each measurement was done in triplicate.
[…] Solutions of each probe were monitored by UV-vis for 5 h.

[4] = solvent as listed per probe; cited from earlier work
[5] = probe before addition of Cys, 25 mM HEPES pH 7.4
[6] = probe before addition of Cys, same buffer at pH 8.0

## COc1cc(O)ccc1/C=C/C1=[N+](CCCCS(=O)(=O)[O-])c2ccccc2C1(C)C [MF52]
[1]; 25 mM HEPES pH 7.4, 1-24 μM
  ε at λmax: 70.1 mM⁻¹ cm⁻¹
  λmax: 529 nm

## COc1cc(/C=C/C2=[N+](CCCCS(=O)(=O)[O-])c3ccccc3C2(C)C)ccc1O [MF53]
[1]; 25 mM HEPES pH 7.4, 1-24 μM
  ε at λmax: 65.3 mM⁻¹ cm⁻¹
  λmax: 548 nm

## CC1(C)C(/C=C/c2ccc(O)c(S(=O)(=O)[O-])c2)=[N+](CCCCS(=O)(=O)O)c2ccccc21 [MF54]
[1]; 25 mM HEPES pH 7.4, 1-24 μM
  ε at λmax: 44.9 mM⁻¹ cm⁻¹
  λmax: 528 nm

## CC1(C)C(/C=C/c2ccc(O)c3ccccc23)=[N+](CCCCS(=O)(=O)[O-])c2ccccc21 [MF56]
[1]; 25 mM HEPES pH 7.4, 1-24 μM
  ε at λmax: 109.7 mM⁻¹ cm⁻¹
  λmax: 582 nm

## CC1(C)C(/C=C/c2ccc(O)c3ncccc23)=[N+](CCCCS(=O)(=O)[O-])c2ccccc21 [MF57]
[1]; 25 mM HEPES pH 7.4, 1-24 μM
  ε at λmax: 106.3 mM⁻¹ cm⁻¹
  λmax: 572 nm

## CC1(C)C(/C=C/c2ccc(O)cc2S(=O)(=O)[O-])=[N+](CCCCS(=O)(=O)O)c2ccccc21 [MF58]
[1]; 25 mM HEPES pH 7.4, 1-24 μM
  ε at λmax: 48.1 mM⁻¹ cm⁻¹
  λmax: 514 nm

## C=CC(=O)Oc1ccc(/C=C/C2=[N+](CCCCS(=O)(=O)[O-])c3ccccc3C2(C)C)c(OC)c1 [MF60]
[2]; 25 mM HEPES pH 7.4
  ε^Cys: 67.8 mM⁻¹ cm⁻¹
  λ^Cys: 529 nm
  SNR: 14
[3]
  Hydrolysis @4° C.: 9.8 ± 0.3%
  Hydrolysis @37° C.: 41.8 ± 0.9%
[1]; [5]
  ε of long-wavelength band of probe: 2.1 mM⁻¹ cm⁻¹
  ε of short-wavelength band(s) of probe: 14.3 mM⁻¹ cm⁻¹
  λmax, long-wavelength band of probe: 530 nm
  λmax, short-wavelength band(s) of probe: 409 nm

## C=CC(=O)Oc1ccc(/C=C/C2=[N+](CCCCS(=O)(=O)[O-])c3ccccc3C2(C)C)cc1OC [MF61]
[2]; 25 mM HEPES pH 7.4
  ε^Cys: 61.7 mM⁻¹ cm⁻¹
  λ^Cys: 549 nm
  SNR: 36
[3]
  Hydrolysis @4° C.: 4.8 ± 0.1%
  Hydrolysis @37° C.: 29.1 ± 1.9%
[1]; [5]
  ε of long-wavelength band of probe: 0.4 mM⁻¹ cm⁻¹
  ε of short-wavelength band(s) of probe: 20.4 mM⁻¹ cm⁻¹
  λmax, long-wavelength band of probe: 548 nm
  λmax, short-wavelength band(s) of probe: 397 nm

## C=CC(=O)Oc1ccc(/C=C/C2=[N+](CCCCS(=O)(=O)[O-])c3ccccc3C2(C)C)c2ccccc12 [MF62]
[2]; 25 mM HEPES pH 7.4
  ε^Cys: 105.3 mM⁻¹ cm⁻¹
  λ^Cys: 582 nm
  SNR: 20
[3]
  Hydrolysis @4° C.: 7.6 ± 0.5%
  Hydrolysis @37° C.: 40.4 ± 0.6%
[1]; [5]
  ε of long-wavelength band of probe: 1.5 mM⁻¹ cm⁻¹
  ε of short-wavelength band(s) of probe: 8.5 mM⁻¹ cm⁻¹ and 7.7 mM⁻¹ cm⁻¹
  λmax, long-wavelength band of probe: 582 nm
  λmax, short-wavelength band(s) of probe: 419 nm and 287 nm

## C=CC(=O)Oc1ccc(/C=C/C2=[N+](CCCCS(=O)(=O)[O-])c3ccccc3C2(C)C)c2cccnc12 [MF63]
[2]; 25 mM HEPES pH 7.4
  ε^Cys: 93.4 mM⁻¹ cm⁻¹
  λ^Cys: 572 nm
  SNR: 10
[3]
  Hydrolysis @4° C.: 9.8 ± 1.5%
  Hydrolysis @37° C.: 55.3 ± 0.7%
[1]; [5]
  ε of long-wavelength band of probe: 2.9 mM⁻¹ cm⁻¹
  ε of short-wavelength band(s) of probe: 14.0 mM⁻¹ cm⁻¹
  λmax, long-wavelength band of probe: 572 nm
  λmax, short-wavelength band(s) of probe: 397 nm

## C=CC(=O)Oc1ccc(/C=C/C2=[N+](CCCCS(=O)(=O)O)c3ccccc3C2(C)C)c(S(=O)(=O)[O-])c1 [MF64]
[2]; 25 mM HEPES pH 7.4
  ε^Cys: 32.1 mM⁻¹ cm⁻¹
  λ^Cys: 514 nm
  SNR: 14
[3]
  Hydrolysis @4° C.: 8.9 ± 0.2%
  Hydrolysis @37° C.: 45.2 ± 1.4%
[1]; [5]
  ε of long-wavelength band of probe: 0.7 mM⁻¹ cm⁻¹
  ε of short-wavelength band(s) of probe: 8.0 mM⁻¹ cm⁻¹
  λmax, long-wavelength band of probe: 514 nm
  λmax, short-wavelength band(s) of probe: 350 nm

## C=CC(=O)Oc1ccc(/C=C/C2=[N+](CCCCS(=O)(=O)O)c3ccccc3C2(C)C)cc1S(=O)(=O)[O-] [MF65]
[2]; 25 mM HEPES pH 7.4
  ε^Cys: 44.3 mM⁻¹ cm⁻¹
  λ^Cys: 528 nm
  SNR: 16
[3]
  Hydrolysis @4° C.: 7.2 ± 0.2%
  Hydrolysis @37° C.: 28.9 ± 1.4%
[1]; [5]
  ε of long-wavelength band of probe: 1.2 mM⁻¹ cm⁻¹
  ε of short-wavelength band(s) of probe: 17.7 mM⁻¹ cm⁻¹
  λmax, long-wavelength band of probe: 528 nm
  λmax, short-wavelength band(s) of probe: 381 nm

## Cc1cc(/C=C/C2=[N+](CCCS(=O)(=O)O)c3ccc(S(=O)(=O)[O-])cc3C2(C)C)cc(C)c1O [MF66]
[1]; 25 mM HEPES pH 7.4, 1-24 μM
  ε at λmax: 122.6 mM⁻¹ cm⁻¹
  λmax: 556 nm
[1]; same buffer at pH 8.0
  ε at λmax: 138.6 mM⁻¹ cm⁻¹
  λmax: 556 nm

## Cc1cc(/C=C/C2=[N+](C)c3ccccc3C2(C)C)cc(C)c1O [MF67]
[1]; 25 mM HEPES pH 7.4, 1-24 μM
  ε at λmax: 67.4 mM⁻¹ cm⁻¹
  λmax: 546 nm
[1]; same buffer at pH 8.0
  ε at λmax: 84.9 mM⁻¹ cm⁻¹
  λmax: 546 nm

## COc1cc(/C=C/C2=[N+](CCCCS(=O)(=O)[O-])c3ccccc3C2(C)C)cc(OC)c1O [MF68]
[1]; 25 mM HEPES pH 7.4, 1-24 μM
  ε at λmax: 70.0 mM⁻¹ cm⁻¹
  λmax: 575 nm

## C=CC(=O)Oc1c(C)cc(/C=C/C2=[N+](C)c3ccccc3C2(C)C)cc1C [MF71]
[2]; 25 mM HEPES pH 7.4
  ε^Cys: 33.7 mM⁻¹ cm⁻¹
  λ^Cys: 547 nm
  SNR: 48
[2]; same buffer at pH 8.0
  ε^Cys: 69.6 mM⁻¹ cm⁻¹
  λ^Cys: 547 nm
  SNR: 53**
[3]
  Hydrolysis @4° C.: 1.0 ± 0.1%
  Hydrolysis @37° C.: 2.3 ± 0.2%
[1]; [5]
  ε of long-wavelength band of probe: 0.6 mM⁻¹ cm⁻¹
  ε of short-wavelength band(s) of probe: 29.1 mM⁻¹ cm⁻¹
  λmax, long-wavelength band of probe: 546 nm
  λmax, short-wavelength band(s) of probe: 387 nm
[1]; [6]
  ε of long-wavelength band of probe: 0.8 mM⁻¹ cm⁻¹
  ε of short-wavelength band of probe: 25.7 mM⁻¹ cm⁻¹
  λmax, long-wavelength band of probe: 546 nm
  λmax, short-wavelength band of probe: 385 nm

## C=CC(=O)Oc1ccc(/C=C/C2=[N+](C)c3ccccc3C2(C)C)cc1 [drawing 16]
[4]
  Spectra: Probe: 384 nm
  Spectra: With Cys: 512 nm

From patent US20240103006A1 (Roche Diagnostics Operations, Inc., priority 2021, published 2024)
